This is an account of results in ChEMBL document CHEMBL5360557 (Eur J Med Chem, 2023).

Data set [1] concerns the target T1, Cholinesterase (Homo sapiens, UniProt P06276). Description: Inhibition of recombinant human BuChE using butyrylthiocholine iodide as substrate at 10 uM preincubated with enzyme for 5 mins followed by substrate addition and measured after 1 min by Ellman's method relative to control. The settings on record: time 6.0 min.
Data set [2] concerns the target T2, Acetylcholinesterase (Homo sapiens, UniProt P22303). Description: Inhibition of recombinant human AChE using acetylthiocholine iodide as substrate preincubated with enzyme for 5 mins followed by substrate addition and measured after 1 min by Ellman's method.
Data set [3] has as its target T1, Cholinesterase. Description: Inhibition of recombinant human BuChE using butyrylthiocholine iodide as substrate preincubated with enzyme for 5 mins followed by substrate addition and measured after 1 min by Ellman's method.
The target of data set [4] is T1, Cholinesterase. The data set is described as follows: Competitive inhibition of human BuChE using butyrylthiocholine iodide as substrate assessed as increase in Km with constant apparent Vmax preincubated with enzyme for 5 mins followed by substrate addition and measured after 1 min by Lineweaver-Burk plot based Ellman's method. To be noted: time 6.0 min.
Data set [5] addresses T1, Cholinesterase. The data set is described as follows: Competitive inhibition of human BuChE using butyrylthiocholine iodide as substrate assessed as inhibition constant preincubated with enzyme for 5 mins followed by substrate addition and measured after 1 min by Lineweaver-Burk plot based Ellman's method.
A short description of data set [6]: Cytotoxicity against human SH-SY5Y cells assessed as inhibition of cell growth incubated for 24 hrs by MTT assay. The data set is classed as toxicity, cell-based.
Data set [7] in a line: Cytotoxicity against human HepG2 cells assessed as inhibition of cell growth incubated for 24 hrs by MTT assay. The data set is classed as toxicity, cell-based.
The next data set in a line: in vitro. To be noted: PAMPA.
The target of data set [8] is T2, Acetylcholinesterase. The data set is described as follows: Inhibition of human AChE using acetylthiocholine iodide as substrate incubated for 1 min by spectrophotometry based Ellman's method.
Data set [9] addresses T1, Cholinesterase. The data set is described as follows: Inhibition of human BuChE using butyrylthiocholine iodide as substrate incubated for 1 min by spectrophotometry based Ellman's method.
The species named for the next data set is Homo sapiens. Description: Selectivity ratio of IC50 for inhibition of human AChE using acetylthiocholine as substrate to IC50 for inhibition of human BuChE using butyrylthiocholine iodide as substrate.

Active and inactive are the calls of the source. No cut-off for these calls is given here. Some results are limits rather than exact numbers.

T1 sequence (P06276 whole entry): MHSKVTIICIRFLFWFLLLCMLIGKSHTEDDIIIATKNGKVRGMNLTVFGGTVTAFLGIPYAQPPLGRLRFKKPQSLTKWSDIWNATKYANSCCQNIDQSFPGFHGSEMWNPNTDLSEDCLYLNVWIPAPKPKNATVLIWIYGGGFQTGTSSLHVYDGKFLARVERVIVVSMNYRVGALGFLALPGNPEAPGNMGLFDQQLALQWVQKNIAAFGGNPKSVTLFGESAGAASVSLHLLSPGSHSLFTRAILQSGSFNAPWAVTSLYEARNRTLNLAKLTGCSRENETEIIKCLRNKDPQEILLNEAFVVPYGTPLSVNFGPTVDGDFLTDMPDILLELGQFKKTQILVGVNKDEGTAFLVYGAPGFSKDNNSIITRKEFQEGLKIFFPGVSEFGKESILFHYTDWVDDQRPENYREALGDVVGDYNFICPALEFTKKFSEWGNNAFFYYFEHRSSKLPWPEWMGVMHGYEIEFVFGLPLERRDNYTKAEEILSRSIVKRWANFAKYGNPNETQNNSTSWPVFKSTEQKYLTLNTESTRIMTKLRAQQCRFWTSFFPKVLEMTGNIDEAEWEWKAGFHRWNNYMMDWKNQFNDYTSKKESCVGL
T2 sequence (P22303 whole entry): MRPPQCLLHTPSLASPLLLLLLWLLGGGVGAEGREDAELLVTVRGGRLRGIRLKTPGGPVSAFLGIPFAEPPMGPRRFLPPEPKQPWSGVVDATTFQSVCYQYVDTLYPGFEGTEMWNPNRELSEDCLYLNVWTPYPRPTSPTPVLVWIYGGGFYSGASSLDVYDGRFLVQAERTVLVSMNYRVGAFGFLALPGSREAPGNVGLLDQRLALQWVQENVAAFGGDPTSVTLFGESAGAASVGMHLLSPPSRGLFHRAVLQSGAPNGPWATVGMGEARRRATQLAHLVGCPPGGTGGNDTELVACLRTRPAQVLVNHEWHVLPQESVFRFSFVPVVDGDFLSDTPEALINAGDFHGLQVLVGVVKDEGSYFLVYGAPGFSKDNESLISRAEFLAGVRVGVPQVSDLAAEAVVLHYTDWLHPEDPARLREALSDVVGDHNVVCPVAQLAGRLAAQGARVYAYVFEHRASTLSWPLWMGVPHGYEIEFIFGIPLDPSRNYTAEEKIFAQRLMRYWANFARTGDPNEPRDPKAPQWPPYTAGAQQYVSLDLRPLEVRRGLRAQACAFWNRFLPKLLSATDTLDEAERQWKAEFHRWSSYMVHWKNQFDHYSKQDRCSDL
Description for in vitro: Permeability of the compound incubated for 3 to 6 hrs by PAMPA-BBB assay

For the compound `COc1cccc(CN(CCCc2ccccc2F)C2CCC2)c1OCc1ccccc1`, the inhibition on Cholinesterase [1] is 99%. For the same compound, the IC50 is more than 10 µM at Acetylcholinesterase [2] and 0.004 µM at Cholinesterase [3]. Also, the inhibition result at Cholinesterase [4] is “Active”. In addition, the Ki at Cholinesterase [5] came out at 0.00404 µM. In addition, the IC50 at 24 h is 87 µM in data set [6] and 76 µM in data set [7]. Moreover, the Papp in the data set “in vitro” is 60 ×10⁻⁶ cm/s.
As for `CCCN(CCCc1ccccc1F)Cc1cccc(OC)c1OCc1ccccc1`, the inhibition at Cholinesterase [1] was determined as 97%. Besides, the IC50 on Acetylcholinesterase [2] was more than 10 µM; on Cholinesterase [3], 0.02 µM. In addition, the IC50 at 24 h was determined as 49 µM in [6] and 33 µM in data set [7]. The same compound gave a Papp in “in vitro” of 85 ×10⁻⁶ cm/s.
Turning to `C=CCCN(CCCc1ccccc1)Cc1cccc(OC)c1OCc1ccccc1`, at Cholinesterase [1], the inhibition is 97%. In addition, the IC50 on Acetylcholinesterase [2] was more than 10 µM; at Cholinesterase [3], 0.07 µM. Moreover, the IC50 at 24 h in [6] stood at 131 µM; in data set [7], 92 µM. In the data set “in vitro”, this compound yielded a Papp of 33 ×10⁻⁶ cm/s.
For the compound `COc1cc(CN(C)CCc2ccc(O)cc2)c(-c2cccc3c2N(C)CC3)cc1OC`, the results for the IC50 at Acetylcholinesterase [8] and at Cholinesterase [9] were more than 100 µM and 0.91 µM, respectively.
`COc1cccc(CNCCc2ccc(O)cc2)c1OCc1ccccc1`: the inhibition at Cholinesterase [1] was 94%. Moreover, the IC50 on Acetylcholinesterase [2] was more than 10 µM; on Cholinesterase [3] it was 0.2 µM. Also, in the data set filed under Homo sapiens, the Ratio IC50 was more than 42. Moreover, the Papp in “in vitro” came to 19 ×10⁻⁶ cm/s.
On to `CCCN(CCCc1ccc(O)cc1)Cc1cccc(OC)c1OCc1ccccc1`, for which the inhibition at Cholinesterase [1] turned out to be 98%. The IC50 on Acetylcholinesterase [2] was more than 10 µM; at Cholinesterase [3], 0.07 µM. The values for the IC50 at 24 h in [6] and in [7] were 44 µM and 31 µM, respectively. The apparent permeability (Papp) in the data set “in vitro” amounted to 16 ×10⁻⁶ cm/s.
As for `CCCN(CCCc1ccccc1)Cc1cccc(OC)c1OCc1ccccc1`, the inhibition at Cholinesterase [1] was determined as 98%. The IC50 was more than 10 µM on Acetylcholinesterase [2] and 0.04 µM on Cholinesterase [3]. Besides, the values for the IC50 at 24 h in data set [6] and in [7] were more than 63 µM and 48 µM, respectively. The compound further gave a Papp in “in vitro” of 32 ×10⁻⁶ cm/s.
Compound `CN(CCc1ccc(O)cc1)Cc1cc2c(cc1-c1cccc3c1N(C)CC3)OCO2` displayed a half-inhibitory concentration (IC50) against Acetylcholinesterase [8] of more than 100 µM.
In the case of `CCCN(CCCc1ccc(F)cc1)Cc1cccc(OC)c1OCc1ccccc1`, the inhibition on Cholinesterase [1] stood at 96%. The IC50 at Acetylcholinesterase [2] is more than 10 µM; on Cholinesterase [3], 0.1 µM. Moreover, the IC50 at 24 h turned out to be 170 µM in data set [6] and 32 µM in data set [7]. Further, in “in vitro”, the Papp was 61 ×10⁻⁶ cm/s.
In the case of `CCCN(CCc1ccc(O)cc1)Cc1cccc(OC)c1OCc1ccccc1`, the inhibition on Cholinesterase [1] was 95%. In addition, the IC50 was more than 10 µM at Acetylcholinesterase [2] and 0.09 µM at Cholinesterase [3]. In addition, the results for the IC50 at 24 h in [6] and in [7] were 44 µM and 43 µM, respectively. In addition, the Papp in “in vitro” came out at 14 ×10⁻⁶ cm/s.
For `CCCN(C/C=C/c1ccccc1)Cc1cccc(OC)c1OCc1ccccc1`, the inhibition on Cholinesterase [1] came to 97%. The IC50 on Acetylcholinesterase [2] was more than 10 µM; at Cholinesterase [3], 0.04 µM. In addition, the IC50 at 24 h in data set [6] came out at 174 µM; in data set [7], 36 µM. In the data set “in vitro”, the Papp came out at 41 ×10⁻⁶ cm/s.
